Laboratory results reported in the NIST ThermoML archive (doi:10.1016/j.jct.2012.11.032).

Assay: xn = mol fraction of the nth substance listed
Conditions: 101 kPa, Liquid; for speed of sound: Sing-around technique in a fixed-path interferometer; for mass density: Vibrating tube method

CCCCCCCCCCCC[n+]1ccn(C)c1.[Cl-] [1-dodecyl-3-methylimidazolium chloride] + O
Conditions	mass density [kg/m3]	speed of sound [m/s]
298 K, x1 = 2.7e-05	997.065	–
298 K, x1 = 3e-05	997.081	–
298 K, x1 = 4.8e-05	997.081	–
298 K, x1 = 7.4e-05	997.07	–
298 K, x1 = 9.4e-05	997.061	–
298 K, x1 = 0.000109	997.064	–
298 K, x1 = 0.000129	997.078	–
298 K, x1 = 0.000145	997.058	–
298 K, x1 = 0.000163	997.076	–
298 K, x1 = 0.000181	997.056	–
298 K, x1 = 0.000208	997.055	–
298 K, x1 = 0.000234	997.049	–
298 K, x1 = 0.000248	997.059	–
298 K, x1 = 0.000273	997.045	–
298 K, x1 = 0.000286	997.042	–
298 K, x1 = 0.000302	997.023	–
298 K, x1 = 0.000319	997.039	–
298 K, x1 = 0.000341	997.023	–
298 K, x1 = 0.000384	997.011	–
298 K, x1 = 0.000407	996.995	–
298 K, x1 = 0.000428	996.98	–
298 K, x1 = 0.0428	–	1500.7
303 K, x1 = 2.7e-05	995.678	–
303 K, x1 = 3e-05	995.688	–
303 K, x1 = 4.8e-05	995.688	–
303 K, x1 = 7.4e-05	995.68	–
303 K, x1 = 9.4e-05	995.666	–
303 K, x1 = 0.000109	995.667	–
303 K, x1 = 0.000129	995.679	–
303 K, x1 = 0.000145	995.66	–
303 K, x1 = 0.000163	995.674	–
303 K, x1 = 0.000181	995.656	–
303 K, x1 = 0.000208	995.653	–
303 K, x1 = 0.000234	995.647	–
303 K, x1 = 0.000248	995.65	–
303 K, x1 = 0.000273	995.635	–
303 K, x1 = 0.000286	995.632	–
303 K, x1 = 0.000302	995.606	–
303 K, x1 = 0.000319	995.625	–
303 K, x1 = 0.000341	995.608	–
303 K, x1 = 0.000384	995.594	–
303 K, x1 = 0.000407	995.571	–
303 K, x1 = 0.000428	995.568	–
303 K, x1 = 0.0027	–	1509.5
303 K, x1 = 0.003	–	1509.5
303 K, x1 = 0.0048	–	1509.8
303 K, x1 = 0.0074	–	1510.1
303 K, x1 = 0.0094	–	1510.4
303 K, x1 = 0.0109	–	1510.6
303 K, x1 = 0.0129	–	1510.8
303 K, x1 = 0.0145	–	1511
303 K, x1 = 0.0163	–	1511.2
303 K, x1 = 0.0181	–	1511.4
303 K, x1 = 0.0208	–	1511.8
303 K, x1 = 0.0234	–	1512
303 K, x1 = 0.0248	–	1512.1
303 K, x1 = 0.0273	–	1512.3
303 K, x1 = 0.0286	–	1512.3
303 K, x1 = 0.0302	–	1512.4
303 K, x1 = 0.0319	–	1512.5
303 K, x1 = 0.0341	–	1512.6
303 K, x1 = 0.0384	–	1512.5
303 K, x1 = 0.0407	–	1512.7
303 K, x1 = 0.0428	–	1512.7
308 K, x1 = 2.7e-05	994.072	–
308 K, x1 = 3e-05	994.075	–
308 K, x1 = 4.8e-05	994.073	–
308 K, x1 = 7.4e-05	994.068	–
308 K, x1 = 9.4e-05	994.05	–
308 K, x1 = 0.000109	994.047	–
308 K, x1 = 0.000129	994.059	–
308 K, x1 = 0.000145	994.046	–
308 K, x1 = 0.000163	994.052	–
308 K, x1 = 0.000181	994.039	–
308 K, x1 = 0.000208	994.032	–
308 K, x1 = 0.000234	994.027	–
308 K, x1 = 0.000248	994.022	–
308 K, x1 = 0.000273	994.008	–
308 K, x1 = 0.000286	994.004	–
308 K, x1 = 0.000302	993.979	–
308 K, x1 = 0.000319	993.993	–
308 K, x1 = 0.000341	993.986	–
308 K, x1 = 0.000384	993.958	–
308 K, x1 = 0.000407	993.935	–
308 K, x1 = 0.000428	993.939	–
308 K, x1 = 0.0027	–	1520.1
308 K, x1 = 0.003	–	1520.2
308 K, x1 = 0.0048	–	1520.4
308 K, x1 = 0.0074	–	1520.7
308 K, x1 = 0.0094	–	1521
308 K, x1 = 0.0109	–	1521.1
308 K, x1 = 0.0129	–	1521.3
308 K, x1 = 0.0145	–	1521.5
308 K, x1 = 0.0163	–	1521.7
308 K, x1 = 0.0181	–	1521.9
308 K, x1 = 0.0208	–	1522.2
308 K, x1 = 0.0234	–	1522.4
308 K, x1 = 0.0248	–	1522.5
308 K, x1 = 0.0273	–	1522.7
308 K, x1 = 0.0286	–	1522.8
308 K, x1 = 0.0302	–	1522.8
308 K, x1 = 0.0319	–	1522.9
308 K, x1 = 0.0341	–	1523
308 K, x1 = 0.0384	–	1522.8
308 K, x1 = 0.0407	–	1523
308 K, x1 = 0.0428	–	1523
313 K, x1 = 2.7e-05	992.261	–
313 K, x1 = 3e-05	992.046	–
313 K, x1 = 7.4e-05	992.253	–
313 K, x1 = 9.4e-05	992.137	–
313 K, x1 = 0.000109	992.207	–
313 K, x1 = 0.000129	992.221	–
313 K, x1 = 0.000145	992.226	–
313 K, x1 = 0.000163	992.224	–
313 K, x1 = 0.000181	992.217	–
313 K, x1 = 0.000208	992.206	–
313 K, x1 = 0.000234	992.203	–
313 K, x1 = 0.000248	992.194	–
313 K, x1 = 0.000273	992.178	–
313 K, x1 = 0.000286	992.177	–
313 K, x1 = 0.000302	992.159	–
313 K, x1 = 0.000319	992.158	–
313 K, x1 = 0.000341	992.147	–
313 K, x1 = 0.000384	992.121	–
313 K, x1 = 0.000407	992.068	–
313 K, x1 = 0.000428	992.103	–
313 K, x1 = 0.0027	–	1529.2
313 K, x1 = 0.003	–	1529.2
313 K, x1 = 0.0074	–	1529.7
313 K, x1 = 0.0094	–	1530
313 K, x1 = 0.0109	–	1530.1
313 K, x1 = 0.0129	–	1530.3
313 K, x1 = 0.0145	–	1530.4
313 K, x1 = 0.0163	–	1530.6
313 K, x1 = 0.0181	–	1530.8
313 K, x1 = 0.0208	–	1531.1
313 K, x1 = 0.0234	–	1531.3
313 K, x1 = 0.0248	–	1531.4
313 K, x1 = 0.0273	–	1531.5
313 K, x1 = 0.0286	–	1531.6
313 K, x1 = 0.0302	–	1531.6
313 K, x1 = 0.0319	–	1531.7
313 K, x1 = 0.0341	–	1531.8
313 K, x1 = 0.0384	–	1531.6
313 K, x1 = 0.0407	–	1531.8
313 K, x1 = 0.0428	–	1531.8
